According to PubChem BioAssay AID588780 (Sanford-Burnham Center for Chemical Genomics, 2011):
The source made the active and inactive calls.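 Rule for the calls: active = compounds whose fitted half-maximal concentration in the cell-protection dose series is at or below a set limit; inactive = the rest.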

tested on: H9c2 cardiomyocytes, 2-deoxyglucose stress, ATP luminescence, 2 h; experiment: protection of cardiomyocytes from 2-deoxyglucose injury, dose response, cell-based, 2-deoxyglucose stress, uHTS hits (AID 588780)

| Structure (SMILES) | IC50 |
| --- | --- |
| O=c1cc(-c2cccnc2)oc2c1ccc1ccccc12 | 12.6 µM |
| O=C(Cn1[nH]c(=O)c2ccccc2c1=O)NC1CCN(Cc2ccccc2)CC1 | > 79 µM (inactive) |
| COc1cc(/C=N/NC(=O)c2ccccc2O)ccc1OCC(=O)Nc1ccccc1 | > 79 µM (inactive) |
| O=C(CCc1nc2ccccc2c(=O)[nH]1)Nc1ccc(F)cc1 | 27.6 µM |
| COc1ccc(C(C)=O)cc1COC(=O)Cc1n[nH]c(=O)c2ccccc12 | > 79 µM (inactive) |
| COc1ccc(OC)c(N(CC(=O)Nc2cccnc2)S(=O)(=O)c2ccc(OC)c(OC)c2)c1 | 42.7 µM (inactive) |
| Cc1c(C#N)c(N)nc2c3c(sc12)NC(=O)CC3c1ccccc1 (stereo not drawn) | > 79 µM (inactive) |
| O=CNc1cc(-c2ccc(C(=O)NC3CC3)cc2)cn2c(-c3ccccc3)cnc12 | 12.1 µM |
| Cc1ccccc1N=Cc1cc2c(cc1[N+](=O)[O-])OCO2 | > 79 µM (inactive) |
| COc1cc(OC)cc(C(=O)Nc2ccc(C(=O)Nc3ccccc3OC)cc2)c1 | 15.9 µM |
| O=C(CCCSc1nc2sc3c(c2c(=O)[nH]1)CCC3)NCCCO | > 79 µM (inactive) |
| CCN1C(=O)/C(=C/c2nc3ccccc3c(=O)n2-c2ccccc2)c2ccccc21 | > 79 µM (inactive) |
| O=C(CSc1nnc(-c2cccnc2)n1Cc1ccco1)c1ccccc1 | > 79 µM (inactive) |
| COC(=O)c1c(C)[nH]c(O)c1C=Nc1ccc(Oc2ccccc2)cc1 | > 79 µM (inactive) |
| COc1ccc(OC)c(/C=N/Nc2nncn2/N=C/c2cc(OC)ccc2OC)c1 | > 79 µM (inactive) |
| O=C(N/N=C/c1cn(-c2ccccc2)nc1-c1cccnc1)c1cccnc1 | > 79 µM (inactive) |
| c1cncc(-c2nc(NCC3COc4ccccc4O3)c3ccccc3n2)c1 (stereo not drawn) | > 79 µM (inactive) |
| COc1cc(-c2cc3nc(NCCOc4ccccc4)ccn3n2)cc(OC)c1OC | 13.9 µM |
| CC(=NO)C1CCC2C3CCC4CC(=NO)CCC4(C)C3C(C)(O)CC12C (stereo not drawn) | 14.9 µM |
| CS(=O)(=O)c1ccc(-c2cnc3c(NC=O)cc(-c4ccsc4)cn23)cc1 | > 79 µM (inactive) |
| COc1ccc(-c2cc(C(F)(F)F)n3nc(C(=O)N4CCN(C(=O)c5ccco5)CC4)cc3n2)cc1 | > 79 µM (inactive) |
| COC(=O)c1ccc2c(=O)[nH]c(COC(=O)c3[nH]c(C)c(C(C)=O)c3C)nc2c1 | > 79 µM (inactive) |
| c1ccc(-c2cc(-c3nnc4sc(-c5ccccn5)nn34)[nH]n2)cc1 | > 79 µM (inactive) |

| Structure (SMILES) | IC50 |
| --- | --- |
| Cc1c(OCC(=O)NCCN2CCOCC2)ccc2c1oc(=O)c1ccccc12 | 10.9 µM |
| CCC(=O)N1CCN(c2ccc(NC(=O)c3cc4ccccc4o3)cc2Cl)CC1 | > 79 µM (inactive) |
| CC(=O)N1CCN(C(=O)CCc2nc3ccccc3c(=O)[nH]2)CC1 | > 79 µM (inactive) |
| Cc1ccc(C(=O)Oc2ccc(Cl)c3cccnc23)cc1[N+](=O)[O-] | > 79 µM (inactive) |
| COc1cc(/C=N/NC(=O)c2cccnc2)ccc1OS(=O)(=O)c1ccc(F)cc1 | 14.1 µM |
| O=C(NCc1ccco1)c1cc(-c2cccnc2)nc2ccc(Cl)cc12 | > 79 µM (inactive) |
| O=S(=O)(c1ccc(Cl)cc1)c1cc(O)ccc1O | > 79 µM (inactive) |
| N#CCCN(C(=O)COC(=O)CCc1nc2ccccc2c(=O)[nH]1)c1ccc(F)cc1 | > 79 µM (inactive) |
| COc1cccc(-c2cnc3c(NC(C)=O)cc(-c4cc(OC)c(OC)c(OC)c4)cn23)c1 | > 79 µM (inactive) |
| O=C(CNC(=O)c1[nH]cnc1C(=O)NC(c1ccccc1)c1ccccc1)OCc1ccccc1 | 13.1 µM |
| O=C(NC(O)C(=O)c1cccs1)c1cccnc1 (stereo not drawn) | > 79 µM (inactive) |
| Cc1cccc(C)c1OCCn1nc(C(=O)O)c2ccccc2c1=O | 10.8 µM |
| CC(C)(C)OC(=O)N1CCC(NC(=O)c2nc[nH]c2C(=O)NCC(=O)OCc2ccccc2)CC1 | > 79 µM (inactive) |
| O=C(Nc1nc(-c2ccccn2)cs1)c1cccc(S(=O)(=O)N2CCOCC2)c1 | 41.5 µM (inactive) |
| Cc1cccc(/N=C/c2c(O)ccc3oc4c(c23)CCCC4)n1 | > 79 µM (inactive) |
| O=C(CSc1nnc(-c2ccccc2)n1Cc1ccccc1)NNC(=O)c1ccccc1O | > 79 µM (inactive) |
| NC(=O)c1ccc(NC(=O)COc2cccc3c2CCNC3=O)cc1 | > 79 µM (inactive) |
| Cc1ccc(S(=O)(=O)N2CCN(C(=O)c3cc(=O)[nH]c4ccccc34)CC2)c(C)c1 | 16.8 µM |
| COc1cc(NC(=O)c2ccc(-c3cn[nH]c3)c3ccoc23)cc(OC)c1OC | 10.4 µM |
| Brc1ccc(-c2nn3c(-c4ccccn4)nnc3s2)o1 | 52.8 µM (inactive) |
| CC1(C(=O)Nc2cccc(OC(F)(F)F)c2)Cc2c(-c3ccc(C(N)=O)cc3)ccnc2O1 (stereo not drawn) | > 79 µM (inactive) |
| CCc1ccc(C(C)NC(=O)c2cc(C)oc2C)cc1 (stereo not drawn) | > 79 µM (inactive) |
| COc1cccc(/C=N/NC(=O)c2ccncc2)c1OC(=O)c1ccc(Br)cc1 | 24.7 µM |

| Structure (SMILES) | IC50 |
| --- | --- |
| Oc1c(Cl)cc(Cl)cc1C=Nc1ccc(N2CCOCC2)cc1 | 31.5 µM (inactive) |
| CCOc1ccc(N(CC(=O)N/N=C/c2ccccn2)S(=O)(=O)c2ccc(Cl)cc2)cc1 | > 79 µM (inactive) |
| COc1ccc(-c2cc(C(=O)NC(C)c3ccccn3)c3ccccc3n2)cc1OC (stereo not drawn) | 13 µM |
| CCOc1cc(/C=C/c2nc3ccccc3c(=O)[nH]2)ccc1O | > 79 µM (inactive) |
| Brc1ccc(CSc2ccc3nnc(-c4cccnc4)n3n2)cc1 | > 79 µM (inactive) |
| CCC1(CC)NC(=O)N(CC(=O)OCC(=O)Nc2ccccc2[N+](=O)[O-])C1=O | > 79 µM (inactive) |
| CCC(=O)Oc1cccc(C(=O)Nc2ccc(-c3nnc(-c4ccco4)o3)cc2)c1 | > 79 µM (inactive) |
| COc1c(O)cccc1/C=N/NC(=O)Cn1ccnc1C | > 79 µM (inactive) |
| CC(C)Cn1c(N)c(C(=O)COC(=O)CCc2nc3ccccc3c(=O)[nH]2)c(=O)n(C)c1=O | > 79 µM (inactive) |
| CC(C)(C)OC(=O)NCc1ccc(NC(=O)c2nc[nH]c2C(=O)NCCCCCCNC(=O)c2[nH]cnc2C(=O)Nc2ccc(CNC(=O)OC(C)(C)C)cc2)cc1 | > 79 µM (inactive) |
| CCCn1c(SC(C(=O)Nc2cccc(OC)c2)c2ccccc2)nc2ccccc2c1=O (stereo not drawn) | > 79 µM (inactive) |
| COc1ccc(/C=N/NC(=O)c2cccnc2)cc1CSc1nc2ccccc2s1 | 12.2 µM |
| O=C(CN1C(=O)C2CC=CCC2C1=O)Nc1nc(-c2ccc(F)cc2)cs1 (stereo not drawn) | 10.8 µM |
| Cc1ccccc1C1c2[nH]c3ccccc3c2C[C@H]2C(=O)N(c3ccccc3C(=O)NCCCN3CCOCC3)C(=O)N12 (stereo partly drawn) | 27.1 µM |
| CC(=O)CCc1ccc(Oc2nc(-c3cccnc3)nc3ccccc23)cc1 | > 79 µM (inactive) |
| COc1cc(OC)c2ccc(=O)oc2c1C(CC(=O)N1CCN(c2ccccc2)CC1)c1ccc2c(c1)OCO2 (stereo not drawn) | > 79 µM (inactive) |
| COc1ccc(-c2nnc3sc(-c4ccco4)nn23)cc1OC | > 79 µM (inactive) |
| Cc1cc(Nc2ccccc2C(=O)O)nc2nc3ccccc3c(=O)n12 | > 79 µM (inactive) |
| CCOc1ccc(C(C(=O)NC2CCCC2)N(C(=O)c2snc(C(N)=O)c2N)c2cccc(O)c2)cc1 (stereo not drawn) | > 79 µM (inactive) |
| O=C(OCC(=O)N1CCc2ccccc21)c1n[nH]c(=O)c2ccccc12 | > 79 µM (inactive) |
| S=c1[nH]c2ccccc2c2ccccc12 | > 79 µM (inactive) |
| CCCNC(=O)c1ccc2c(=O)c(O)c(-c3ccc(F)cc3)[nH]c2c1 | > 79 µM (inactive) |
